{"source": "patent US20050170004A1", "about": "“Nanoparticles for drug delivery” (priority 2003, published 2005)", "key": {"[1]": {"tested_on": "EAE in the Lewis rat model", "assay": "Efficacy in rat experimental autoimmune encephalomyelitis (EAE)", "format": "in vivo", "settings": "for % of inhibition vs. DDW: inhibition of group mean score", "from_the_text": "In this experiment the goal was to reduce experimental autoimmune encephalomyelitis (EAE) induced clinical signs in the Lewis rat model. Lewis (LEW) rats are highly susceptible to EAE induced with guinea pig spinal cord homogenate (GPSCH) emulsified in modified complete Freund's adjuvant (CFA). […] Decreased signs of EAE in rats with test materials administered orally during the study is considered a protective effect set forth by the experimental design.\nThe animal were induced with the disease by subcutaneous injection of GPSCH emulsion into both hind paws on day 1.\nInitiation of scoring of rats for EAE clinical signs started on day 9. The treatment groups were blinded to the scorer. The treatments or control treatments were started on day 1 and administered daily to day 22. Treatments were administered by oral gavage at a dose and frequency described in Table 2.\nThere were ten rats in each group.\nThe animals were accessed daily for EAE clinical signs as described in Table 3.\nThe number of sick animals in each group were assessed. The day of onset of the symptoms, the duration of days of the symptoms and the number of animals dying were noted and the percentages calculated.\nThe maximal scores of each of the animals in each group were summed. The mean maximal score of the group was calculated as follows: […]\nΣ Maximal score of each rat/number of rats in the group.\nThe scores of each of the animals in the group were summed and the mean score per day was calculated. The group mean score was calculated as follows: • Σ Total score of each rat per day/number of rats in the group. Results"}, "pancreatin": {"tested_on": "pancreatin", "assay": "Protection from enzymatic degradation by pancreatin", "format": "in vitro ADME", "settings": "pancreatin:GA 1:10, 37° C., phosphate buffer pH 6.8", "experimental": "The enzymatic degradation of free GA in solution versus GA in the nano suspension (˜50% bound to the nanoparticles) and versus GA bound to the nanoparticles (˜100% bound) was studied using pancreatin. The GA bound to the nanoparticles was prepared by collecting fractions from the void volume of the Sephadex column as described in Example 1 and pooling the samples. Pancreatin is a mixture of pancreatic proteases consisting of trypsin and chymotrypsins.\nPancreatin 3.5 mg was dissolved in 10 ml of 0.05M phosphate buffer pH=6.8. Free GA, GA in nano suspension, or fully bound GA, 35 mg as GA, was dissolved or suspended in 10 ml of 0.05M phosphate buffer pH=6.8. 1 ml of the pancreatin solution and 1 ml of the GA solution or suspension were mixed (the ratio of pancreatin to GA was fixed at 1:10) and held at 37° C. At fixed time points the enzymatic reaction was stopped by adding 0.4 ml of 1N HCl. The residual GA content of the mixture was determined by the HPLC method described in Example 1."}, "spleen cells of mice": {"tested_on": "spleen cells of mice", "assay": "Immunologic activity ex-vivo in mice: cytokine secretion from splenocytes activated with GA RS (ELISA)", "settings": "mice fed daily 250 μg GA equivalent; throughout the test period", "experimental": "The ability of GA-Wax-PVP to elicit an immune response with a similar cytokine pattern as glatiramer acetate solution was tested in an ex-vivo model in mice. The study was conducted over a period of 10 days. Mice were fed daily with GA reference standard (GA RS, 250 μg), GA-Wax-PVP (amount equivalent to 250 μg GA) or Wax-PVP as negative control (similar volume and weight of particles as GA-Wax-PVP). During the study period, subsets of animals in each treatment group were sacrificed on days 3, 6 and 10. Spleens were excised and primary cell cultures were prepared. The effect of the treatment was tested by in-vitro activation of splenocytes with GA RS. The response of the cells to the challenge is a measure of previous exposure to GA. Comparing the immune response of the mice fed GA-Wax-PVP to those fed GA RS gives a measure of the relative exposure to GA that each treatment provided. T-cell response was monitored by detection of cytokines secreted from activated cells by ELISA analysis. The levels of IL-2, TGF-β, IL-4, IL-5, IL-10 and IFN-γ were examined."}, "multiple sclerosis": {"tested_on": "multiple sclerosis", "settings": "cited from earlier work"}, "[2]": {"settings": "daily oral gavage day 1-22, 2.5 mg GA/ml, 5 ml/kg"}}, "data": [{"substance": "Glatiramer acetate [GA]", "values": [{"measurement": "Group Mean Score", "setting": "[1]; EAE clinical score 0-6", "result": "0.67 ± 0.4"}, {"measurement": "Mean Maximal Score", "setting": "[1]; EAE clinical score 0-6", "result": "2.2 ± 1.1"}, {"measurement": "Incidence %", "setting": "[1]; [2]", "result": 89, "unit": "%"}, {"measurement": "Incidence Total N", "setting": "[1]; [2]", "result": "8/9"}, {"measurement": "Mean Disease Duration", "setting": "[1]; [2]", "result": "3.2 ± 1.6", "unit": "days"}, {"measurement": "Mean Onset", "setting": "[1]; [2]", "result": "13.0 ± 2.5", "unit": "days"}, {"measurement": "Mortality %", "setting": "[1]; [2]", "result": 0, "unit": "%"}, {"measurement": "Mortality Total N", "setting": "[1]; [2]", "result": "0/10"}, {"measurement": "Incidence Total N", "setting": "[1]; daily oral gavage day 1-22, 2.5 mg GA/ml, 5 ml/kg, listed as Glatiramer acetate oral solution", "result": "eight of nine"}, {"measurement": "Daily Mean Score", "setting": "[1]; day 9, EAE clinical score 0-6", "result": 0.0}, {"measurement": "Daily Mean Score", "setting": "[1]; day 10, EAE clinical score 0-6", "result": 0.0}, {"measurement": "Daily Mean Score", "setting": "[1]; day 11, EAE clinical score 0-6", "result": 0.2}, {"measurement": "Daily Mean Score", "setting": "[1]; day 12, EAE clinical score 0-6", "result": 1.3}, {"measurement": "Daily Mean Score", "setting": "[1]; day 13, EAE clinical score 0-6", "result": 2.0}, {"measurement": "Daily Mean Score", "setting": "[1]; day 14, EAE clinical score 0-6", "result": 1.8}, {"measurement": "Daily Mean Score", "setting": "[1]; day 15, EAE clinical score 0-6", "result": 1.2}, {"measurement": "Daily Mean Score", "setting": "[1]; day 16, EAE clinical score 0-6", "result": 0.1}, {"measurement": "Daily Mean Score", "setting": "[1]; day 17, EAE clinical score 0-6", "result": 0.0}, {"measurement": "Daily Mean Score", "setting": "[1]; day 18, EAE clinical score 0-6", "result": 0.0}, {"measurement": "AUC of daily mean score", "setting": "[1]; days 9-18", "result": 6.6}, {"measurement": "% of inhibition vs. DDW", "setting": "[1]", "result": 38, "unit": "%"}, {"measurement": "% of inhibition vs. DDW", "setting": "[1]; listed as glatiramer acetate oral solution", "result": 38, "unit": "%"}, {"measurement": "effect on disease severity of EAE (conclusion)", "setting": "[1]; oral administration, in words", "result": "inhibit the disease severity of EAE in rats"}, {"measurement": "percent residual GA", "setting": "pancreatin; 0 min", "result": "100.0 +/− 0.0%"}, {"measurement": "percent residual GA", "setting": "pancreatin; 1 min", "result": "75.1 +/− 3.9%"}, {"measurement": "percent residual GA", "setting": "pancreatin; 2 min", "result": "63.4 +/− 4.8%"}, {"measurement": "percent residual GA", "setting": "pancreatin; 3 min, listed as Free GA, 3 min", "result": "56.3 +/− 4.7%"}, {"measurement": "percent residual GA", "setting": "pancreatin; 3 min, listed as free GA", "result": 56, "unit": "%"}, {"measurement": "percent residual GA", "setting": "pancreatin; 6 min", "result": "47.1 +/− 4.4%"}, {"measurement": "levels of all the cytokines examined (IL-2, TGF-β, IL-4, IL-5, IL-10, IFN-γ)", "setting": "spleen cells of mice", "result": "similar"}, {"measurement": "clinical benefits for MS patients", "setting": "multiple sclerosis; 20 mg subcutaneous daily injection", "result": "extended clinical benefits"}, {"measurement": "burden of disease lesions in magnetic resonance imaging measures", "setting": "multiple sclerosis; literature review", "result": "significantly reduce"}, {"measurement": "relapse rate of multiple sclerosis", "setting": "multiple sclerosis; literature review", "result": "significantly reduce"}]}]}
